Assay results: a melting point compilation (Tetko et al.; mined from patent text by program, amines drawn as free bases though some values may be those of a salt)

Structure (SMILES) | melting point
C=CCc1cc(C=CNC(=O)OC)ccc1OCC(O)CNC(C)C (stereo unspecified) | 128 to 129 °C
CCCn1c(=O)c2[nH]c(C3CC4COCC4C3)nc2n(CCC)c1=O (stereo unspecified) | 226 to 230 °C
Cc1ccccc1C(=O)Nc1ccc(C(=O)N2Cc3ccccc3Sc3ccccc32)cc1 | 145 to 148 °C
Cc1cc(Br)cnc1CCCCNc1ncc(Cc2cccnc2)cc1[N+](=O)[O-] | 82 to 84 °C
CCOC(=O)c1nnc2n1-c1sc(Cl)cc1C(c1ccccc1Cl)=NC2 | 180 to 182 °C
N#Cc1ccc(NC(=O)Nc2cccc(C#N)c2)cc1 | 183 to 185 °C
CC(O)c1ccc2c3c1ccn3C(=O)CNC2 (stereo unspecified) | 295 to 297 °C
CC(C)(C)c1nc(C#N)nc(C(C)(C)C)c1O | 203 to 205 °C
N#CCCn1c(-c2ccccc2)cc2ccccc21 | 90 °C
COc1ccc(CNc2nc(Cl)ccc2C(=O)O)cc1Cl | 184 to 186 °C
O=C(Cc1ccc(Cl)c([N+](=O)[O-])c1)N[C@H]1C[C@H](C(=O)O)Nc2cc(Cl)cc(Cl)c21 (relative stereo) | 233 to 235 °C
CC1CCN=C2C(=O)c3cc(Br)ccc3N21 (stereo unspecified) | 127 to 129 °C
COc1ccc(C2CCCC(=O)N2c2ccccc2)cc1 (stereo unspecified) | 77 to 78 °C
Oc1ccc2c(c1)NCC2 | 115 to 120 °C
CCCCNC(=O)NCc1ccc(Nc2n[nH]c3ncnc(Nc4cccc(Cl)c4)c23)cc1 | 217 to 218 °C
C=CCn1cc(Cc2ccc(C(=O)O)cc2OC)c2cc(CC(=O)NCCCC)ccc21 | 78 to 80 °C
N#CC1CN1C(=O)NC(=O)c1cccs1 (stereo unspecified) | 156 to 160 °C
COCOc1cc(F)ccc1-c1cc(-c2cccc(Br)c2)c(C#N)c(N)n1 | 165 to 166 °C
CC(=O)OC1CSC(Oc2ccc(-c3ccncc3)nc2Cl)C(OC(C)=O)C1OC(C)=O (stereo unspecified) | 179 °C
CCc1nc(-c2ncn3c2CCCc2ccccc2-3)no1 | 151 °C
CCCS(=O)(=O)Cc1cc2oc(S(N)(=O)=O)cc2cn1 | 167 to 169 °C
FC(F)(F)c1ccc2nc(CN3CCN(c4ccc(Cl)cc4)CC3)cn2c1 | 128 to 135 °C
CCN(c1nc(C)cc(C(O)c2cnccc2-c2ccccc2OC)n1)c1ccc(C(C)C)cc1Br (stereo unspecified) | 68 to 70 °C
OCCCSc1nc2ccc(Cc3ccccc3)cc2[nH]1 | 103 to 105 °C
COc1cc(OC)c2c(=O)[nH]c(-c3cc(C)c(OCCN4CCCCCC4)c(C)c3)nc2c1 | 198 to 199 °C
CNc1ccc(N)cc1[N+](=O)[O-] | 115 to 116 °C

Structure (SMILES) | melting point
N#CC(c1ccccc1)c1cc(Oc2cc(Cl)cc(Cl)c2)c2c(=O)c3ccccc3sc2c1 (stereo unspecified) | 145 to 155 °C
CCOC(=O)CN1C(=O)C(NC(=O)OCc2ccccc2)N=C(c2ccccc2)c2ccccc21 (stereo unspecified) | 65 to 66 °C
COc1cc(O)c(C(=O)c2ccccc2)c(Cl)c1 | 92 to 94 °C
CN(C)C1CCN(c2cc3ccccc3c(=O)[nH]2)CC1 | 204 to 205 °C
CCSCCC(=O)NNC(=O)N1Cc2ccccc2Oc2ccc(Cl)cc21 | 126 to 129 °C
CC(C)(COC(=O)COc1ccc(C(=O)CN2Cc3cc(C#N)ccc3C2=O)cc1)NS(=O)(=O)c1cccnc1 | 190 to 192 °C
CC1(C)Oc2ccc(C#N)cc2C(CC(=O)N2CCCCC2)C1O (stereo unspecified) | 160 to 161 °C
CCOC(=O)COc1cc(F)c(C)cc1C(=O)NCc1ccc(Br)cc1F | 128 to 129 °C
COc1ccc(-c2csc(NN=Cc3cn(Cc4ccc(Cl)cc4Cl)c4ccccc34)n2)cc1OC | 205 °C
CCCC(=O)Nc1ccc2oc3c(c2c1)CCCC3 | 133 to 135 °C
CCOc1nn(-c2ccc(C(F)(F)F)cn2)cc1CCCO | 85 to 86 °C
O=C(Cc1ccc(O)cc1)c1c(O)cc(O)cc1O | 259 °C
CCOC(=O)c1cn(-c2ccc(C(F)(F)F)cn2)nc1C | 88 to 89 °C
O=C(O)c1ccc(-c2ccc3ncnc(Nc4ccc(OCc5cccc(F)c5)c(Cl)c4)c3c2)s1 | 312 to 314 °C
CSc1nnc2n1C=Cc1cc(C)ccc1C2 | 161 to 162 °C
COc1ccccc1CCSc1c(O)cc(-c2ccccc2)oc1=O | 114 to 115 °C
Cc1cc(C(=O)O)nc(-c2ccc([N+](=O)[O-])cc2)c1 | 216 to 219 °C
CCN(CC)Cc1nc2cc(OC)c(OC)cc2c(-c2ccc(OC)c(OC)c2)c1C(C)O (stereo unspecified) | 144 to 145 °C
CSc1cc2c(cc1C(F)(F)F)N(C(=O)Nc1ccc(C(=O)N(C)c3ccncc3)cc1)CC2 | 230 to 232 °C
CCOC(=O)NC(C)c1ccc(O)c(C2CCCCC2)c1 (stereo unspecified) | 97 to 98 °C
CC(C)(O)CCCCC(C)(C)O | 87 °C
CCCCCCCOc1c(C)cc2[nH]c(S(=O)Cc3ncc(C)c(OC)c3C)nc2c1C (stereo unspecified) | 116 °C
COc1ccc(Cc2cc(C3CCN(C(=O)NCc4ccccc4)CC3)nc(N)n2)cc1 | 128 to 131 °C
Cc1cc(C(C)(C)C)c(O)c(S(=O)(=O)Nc2ccc(I)cc2)c1 | 184 to 185 °C
O=C1Nc2ccccc2C1C(=O)C(F)(F)F (stereo unspecified) | 184 °C
COc1ccccc1-c1coc2cc(O)c(Cl)cc2c1=O | 228 to 230 °C

Structure (SMILES) | melting point
COC(=O)/C=C/CSc1nc(N)cc(Cl)n1 | 146 to 149 °C
O=C(Cn1nnc2ccccc21)Nc1ccc(-n2nc(C(F)(F)F)cc2C2CC2)nc1 | 189 to 192 °C
COC(=O)/C=C/c1cc(Br)cs1 | 63 to 67 °C
CCOc1ccc2c(c1)n(-c1ccccn1)c(=O)n2S(=O)(=O)c1ccc(C(=O)O)cc1OC | 241 °C
Nc1cc(N2CC(CCc3ccccc3)OC2=O)ccn1 (stereo unspecified) | 143 to 144 °C
CC(=O)Nc1ccc2[nH]c(C=CC(=O)O)cc2c1 | 238 to 239 °C
CCOC(=O)c1cc(=O)c2c(OCC(O)CSC)cccc2o1 (stereo unspecified) | 69 to 71 °C
CC12CCC(O)CC1CCC1C2C(=NO)CC2(C)C1CCC21OCCO1 (stereo unspecified) | 158 to 159 °C
COc1ccc(/C(=C\C=C\C(=O)NCCCCc2cccnc2)c2ccccc2OC)cc1 | 164 to 165 °C
CC(N)=CC(=O)c1cccs1 | 170 to 172 °C
Cc1cc(C(C#N)=CN(C)C)cc(C)n1 | 149 °C
CC(=O)Nc1nc(CCc2ccc(N)cc2)c(C(=O)Nc2ccccc2)s1 | 104 to 105 °C
O=C(SC1CCC1C(=O)N1CCC[C@H]1C(=O)O)c1ccccc1 (stereo partly specified) | 123 to 124 °C
CCOC(=O)c1cn(-c2cc([N+](=O)[O-])c(F)cc2F)c2cc(F)c(F)cc2c1=O | 165 to 173 °C
O=C(NC1CCCCCC1)c1cccc(C(=O)NC2CCCCCC2)c1 | 285 to 286 °C
Cc1ccc(C(N)=S)c2ccccc12 | 143 to 145 °C
CC(C)(C)CCN1C(=O)C(NC(=O)Oc2ccccc2)C(=O)N(c2ccccc2)c2ccccc21 (stereo unspecified) | 170 to 172 °C
CN(C)CCC1(CO)c2ccccc2N(C)c2cc(Cl)ccc21 (stereo unspecified) | 120 °C
CN1CS(=O)c2cccc(Cl)c21 (stereo unspecified) | 130 to 132 °C
CN1CCCC2C(=NO)CCCC21 (stereo unspecified) | 169 to 171 °C
O=c1c(Cl)c(OCc2ccc(F)cc2F)ccn1Cc1ccc2c(c1)CCN2 | 137 to 139 °C
Cc1cccc(C)c1SC(CC(C)C)c1c(O)cc(-c2ccccc2)oc1=O (stereo unspecified) | 166 to 167 °C
COC(=O)c1ccc(OC)c2c1OCO2 | 122 to 124 °C
CON(C)C(=O)c1cc(-n2c(Cl)nc(C(F)(F)F)cc2=O)c(F)cc1Cl | 183 °C
Cc1ccccc1C(CCC(=O)O)Oc1cc(OCc2ccsc2)ccc1-c1nc(C(=O)O)co1 (racemic) | 178 to 179 °C
Cn1c(C(=O)O)ccc1C(=O)c1ccccc1 | 178 to 181 °C

Structure (SMILES) | melting point
COc1ccc(-c2ccc(C#N)cc2C(F)(F)F)cc1C=O | 116 to 118 °C
CCOC(CCNC(=O)CCC(=O)NCCC(OCC)OCC)OCC | 89 to 90 °C
C(=CCN(c1ccccc1)c1cccc2ccccc12)CN(c1ccccc1)c1cccc2ccccc12 | 140 to 142 °C
COC(=O)CCc1cc2cc(Cl)ccc2n1S(=O)(=O)c1ccccc1 | 93 to 96 °C
COc1cc(C(=O)c2cn(C)c(-c3cn(C)c4ccccc34)n2)cc(OC)c1OC | 164 to 166 °C
CCCCCCc1ccc(OCCCCCCCCCCCCCCCC(=O)NCCO)cc1O | 96.4 °C
CC1CC2C(=CCC3(C)C2CCC3(O)C(=O)CO)C2(C)C=CC(=O)C=C12 (stereo unspecified) | 204 to 206 °C
COc1cc(C)c2c(c1)[C@@H]1c3ccccc3N[C@@H]1C2 (relative stereo) | 104 °C
CCCc1c(OCCCCc2ccc3cc(OCc4ccccc4)c(OCc4ccccc4)cc3c2)ccc(C(=O)OCc2ccccc2)c1O | 87 to 89 °C
NC(=O)N1C(=O)C(C(=O)c2cccs2)c2nc(Cl)c(Cl)cc21 (stereo unspecified) | 237 to 240 °C
Cc1cc2c(cc1C)C(=O)C(Nc1ccccc1)=CC2=O | 208 to 210 °C
FC(F)C(F)(F)Oc1cccc(Nc2nccc(-c3ccncc3)n2)c1 | 191 to 192 °C
C#CCN(CC#C)c1ccc(Cl)c(Cl)c1 | 48 to 50 °C
O=C(Nc1ccc2ccc(Oc3ccccc3)nc2n1)c1cccc(Br)c1 | 194 °C
CC1(C)[C@@H](CNc2ccc(C(F)(F)F)cn2)CC[C@@]1(C)NCC(=O)N1C[C@@H](F)C[C@H]1C#N | 52 to 58 °C
COCCOc1cc(N(C)S(=O)(=O)c2ccccn2)c2[nH]c(C3=N[C@@H](CO)CS3)cc2c1 | 147 °C
N=C(Nc1ccc(CCNCc2ccccc2Cl)cc1)c1cccs1 | 81 to 82 °C
CC(=O)Nc1c(-c2c(F)cc(F)cc2F)c(Cl)nc2ncnn12 | 108 to 111 °C
COc1ccc(-c2ccncc2OC2SCC(O)C(O)C2O)cc1 (stereo unspecified) | 228 °C
COc1ccc(C(=O)Cc2c(Cl)cncc2Cl)c2c(CC(=O)Nc3cccnc3)coc12 | 252 to 255 °C
CC(=O)CCc1nc2c(N)nc3ccccc3c2n1CC(C)C | 172 to 174 °C
CC(C)c1cccc(C(C)C)c1NC(=O)Nc1nnn(CCCCCCCCCCCCO)n1 | 80 to 90 °C
Cc1noc(-c2ccccc2)c1-c1ccc(S(C)(=O)=O)cc1 | 144 to 145 °C
